Patent publication US6838237B2, “Antigenically reactive regions of the hepatitis a virus polyprotein” (The United States of America as represented by the …, priority 1996, dated 2005)

Key:
anti-HAV-negative sera = assay: EIA for anti-HAV: synthetic peptides reacted with anti-HAV-negative sera; assay type: binding, human; conditions: experiment 1: sera 1:100, cutoff P/N 3.0
From the text: (§1) All anti-HAV-positive and anti-HAV-negative sera were randomly selected from a collection reposited at the Centers for Disease Control and Prevention, Atlanta, Ga. Serum specimens were collected from anti-HAV-positive patients with acute liver disease. Anti-HAV-negative serum specimens were collected from normal blood donors. All sera were initially tested by commercially available kit for the presence of anti-HAV activity (HAVAB and HAVAB-M, Abbott Laboratories, Abbott Park, Ill.)
(§2) Synthetic peptides (110 ml) at a concentration of 10 mg/ml in 0.1 M phosphate-buffered saline (PBS), pH 7.5, were adsorbed to microtiter wells (Immulon II, Dynatech Laboratories, Inc.) at room temperature for 12 h. Sera were diluted in PBS containing 0.1% Tween 20 and 10% normal goat serum (PBS-T) and 100 ml were added to each well, incubated for 60 min at 37E C, and washed with PBS containing Tween-20. […] Two different cutoffs were established for experiments 1 and 2. In experiment 1, the cutoff, expressed as a P/N ratio and equal to 3.0, was statistically established as the mean of negative controls plus at least 3.5 standard deviations (SD) above the mean, where P represents the optical density value at 493 nm (OD493) of anti-HAV-positive specimens and N represents the optical density value of negative controls. In experiment 2, a different cutoff was used to ensure statistical reliability and accurate interpretation of positive results. In this case, in addition to anti-HAV-negative sera, two irrelevant synthetic peptides were used as supplemental negative controls to determine the degree of nonspecific binding of anti-HAV sera to synthetic peptides. One cutoff, expressed as a P/N ratio and equal to 3.0, corresponded to the mean of negative serum controls plus at least 3.5 SD above the mean. A second cutoff was also expressed as a P/N ratio, where P represents the optical density value at 493 nm (OD493) for HAV peptides immunoreacting with anti-HAV-positive specimens and N represents the optical density value obtained with the irrelevant peptides. The second cutoff was equal 2.0 and corresponded to the mean of OD values obtained with the irrelevant peptides plus at least 3.5 SD above the mean. Synthetic peptides were considered immunoreactive with anti-HAV serum specimens only when both cutoffs were satisfied.

anti-HAV-positive sera = assay: EIA for anti-HAV: synthetic peptides adsorbed to wells, reacted with anti-HAV-positive acute sera; assay type: binding, human; conditions: for Reactivity with acute sera (reactive/tested): experiment 1: sera 1:100, anti-human IgG-HRP, cutoff P/N 3.0; for Reactivity with acute sera (percent of sera reactive): experiment 1: sera 1:100, cutoff P/N 3.0; for P/N for acute sera (mean) / P/N for acute sera (range, in parentheses): experiment 1, OD493 positive/negative ratio of reactive sera
From the text: as §1, §2

Sequence	Reactivity with negative sera (reactive/tested) (anti-HAV-negative sera)	percent of (IgM) anti-HAV-positive sera immunoreactive with peptide (anti-HAV-positive sera) [%]	Reactivity with acute sera (reactive/tested) (anti-HAV-positive sera)	Reactivity with acute sera (percent of sera reactive) (anti-HAV-positive sera) [%]	P/N for acute sera (mean) (anti-HAV-positive sera)	P/N for acute sera (range, in parentheses) (anti-HAV-positive sera)	immunoreactivity with anti-HAV-positive sera (in words) (anti-HAV-positive sera)	mean P/N ratio with anti-HAV-positive sera (anti-HAV-positive sera)
RCEPVVCYLYGKRGGGKSLT [YK-1348]	2/51	29.2	14/48	29.2	6.96	(3.66-15.48)		
RGKGEGLPGMCGGALVSSNQ [YK-1390]	1/27		10/41	24.4	6.62	(3.52-13.98)		
RIMKVEFTQCSMNVVSKTLF [YK-1394]	3/27		13/41	31.7	6.98	(4.05-12.93)		
RMYWGPAISYFHLNPGFHTG [YK-1414]	0/27		1/41	2.4	3.35			
SDPSQGGGIKITHFTTWTSI [YK-1235]	0/48		11/46	23.9	4.2	(3.0-4.95)		
SDSVGQQIKVIPVDPYFFQM [YK-1243]	0/46		1/41	2.4	3.47		Very weakly reactive	
SEKTIWSLIAWQRSNAEFEQ [YK-1434]	1/27		11/41	26.8	7.47	(3.85-16.03)		
SHIECRKPYKELRLEVGKQR [YK-1315]	1/51		26/48	54.2	13.71	(3.1-75.61)		
SKTRAIDACPLDYSILCRMY [YK-1412]	2/27		10/41	24.4	6.04	(3.4-15.15)		
SLIAWQRSNAEFEQNLENAQ [YK-1435]	1/27		6/41	14.6	8.96	(5.16-13.71)		
SQGISDDDNDSAVAEFFQSF [YK-1368]	1/27		26/41	63.4	9.58	(4.27-19.82)		
SVTEQSEFYFPRAPLNSNAM [YK-1308]	0/51		1/48	2.1	3.32			
TKPVASDYWDGYSGQLVCII [YK-1352]	0/51		8/48	16.7	4.45	(3.38-5.81)		
TPVGLAVDTPWVEKESALSI [YK-1290]	1/51		6/48	12.5	4.48	(3.0-6.44)		
TTVSTEQNVPDPQVGITTMK [YK-1265]	0/46		9/41	22.0	6.7	(3.23-9.57)		
VAKLVTQEMFQNIDKKIESQ [YK-1393]	1/27	58.5	24/41	58.5	10.15	(4.64-16.36)	very broad and strong antigenic reactivity	10.15
VASHVRVNVYLSAINLECFA [YK-1261]	1/46		16/41	39.0	5.27	(3.72-7.9)	broadly and strongly immunoreactive	
VDDPRSEEDKRFESHIECRK [YK-1314]	1/51		26/48	54.2	14.68	(3.53-89.96)	broad and strong antigenic reactivity	
VIQQLNQDEHSHIIGLLRVM [YK-1334]	2/51		5/48	10.4	4.27	(3.16-5.27)	marginally immunoreactive	
VKEAIDRRLHFKVEVKPASF [YK-1361]	0/46		5/41	12.2	4.12	(3.21-6.28)		
VKPASFFKNPHNDMLNVNLA [YK-1362]	0/41		6/41	14.6	7.82	(3.4-18.05)		
VLPPPRKMKGLFSQAKISLF [YK-1318]	0/51		15/48	31.3	5.94	(3.4-8.68)		
VMTVEIRKQNMTEFMELWSQ [YK-1367]	1/41	22.0	9/41	22.0	7.82	(4.18-16.26)		
VSGCPMRLNMASLEEKGRHF [YK-1356]	0/51		8/48	16.7	5.49	(3.36-10.96)		
WQRSNAEFEQNLENAQWFAF [YK-1436]	1/27		4/41	9.8	4.49	(3.35-5.89)		
